According to patent publication US8614214B2, “Pyrazole amide compounds and uses thereof” (Sinochem Corporation, priority 2010, dated 2013):
Like-named read-outs stand apart in the source and are kept apart here.

Assays:
wheat powdery mildew = assay: Greenhouse pot seedling assay, wheat powdery mildew; assay type: in vivo; settings: 400 ppm
cucumber downy mildew [1] = assay: Field trial against cucumber downy mildew; assay type: in vivo; settings: for Control (%) average: average of 3 replicates; for Control (%) I: replicate I; for Control (%) II: replicate II; for Control (%) III: replicate III
Experimental: The trial was carried out in a greenhouse in July 2011 in […] district, Shanxi Province. Before the treatment, the cucumber plants were at the beginning of infection. The trial method was based on the National Standard of the People's Republic of China-“Pesticide-Guidelines for The Field Efficacy Trials”. […] The Area of plot was 15 m^2, random arrangement and 3 times replication. The volume was about 600 L/hm^2, and water was as the control. Efficacy calculation method is as follows: [formula] [formula]

banana anthracnose = assay type: cell-based
rice blast [2] = assay type: in vivo
cucumber downy mildew [3] = assay: Persistence comparative test against cucumber downy mildew (greenhouse); assay type: in vivo
mango anthracnose = assay type: cell-based
rice sheath blight = assay type: cell-based
[4] = system: corn southern leaf blight; assay type: cell-based
cucumber downy mildew [5] = assay: Greenhouse pot seedling assay, cucumber downy mildew; assay type: in vivo; settings: for Control (%): comparative test, Table 18; for control of cucumber downy mildew: greenhouse
rice blast [6] = assay type: cell-based
corn rust = assay: Greenhouse pot seedling assay, corn rust; assay type: in vivo; settings: for Control (%): comparative test, Table 20; for control of corn rust: greenhouse
sigatoka = assay type: cell-based

CNC(=O)c1ccccc1NC(=O)COc1ccc(CNC(=O)c2c(Cl)c(C)nn2C)cc1 [Compound 15]
Biological activity in greenhouse, wheat powdery mildew (wheat powdery mildew; Table 21): 100 | control of wheat powdery mildew (wheat powdery mildew; greenhouse): 100% | Control (%) average (cucumber downy mildew [1]; 100 ppm): 52% | Control (%) I (cucumber downy mildew [1]; 100 ppm): 33% | Control (%) II (cucumber downy mildew [1]; 100 ppm): 53% | Control (%) III (cucumber downy mildew [1]; 100 ppm): 69% | Control (%) average (cucumber downy mildew [1]; 200 ppm): 66% | Control (%) I (cucumber downy mildew [1]; 200 ppm): 60% | Control (%) II (cucumber downy mildew [1]; 200 ppm): 65% | Control (%) III (cucumber downy mildew [1]; 200 ppm): 72% | Control (%) average (cucumber downy mildew [1]; 400 ppm): 82% | Control (%) I (cucumber downy mildew [1]; 400 ppm): 80% | Control (%) II (cucumber downy mildew [1]; 400 ppm): 81% | Control (%) III (cucumber downy mildew [1]; 400 ppm): 86% | EC50 against banana anthracnose (banana anthracnose): 2.867 ppm | Control (%) I (rice blast [2]; 400 ppm): 69% | Control (%) II (rice blast [2]; 400 ppm): 71% | Control (%) III (rice blast [2]; 400 ppm): 67% | Control (%) average (rice blast [2]; 400 ppm): 69% | Control (%) I (rice blast [2]; 600 ppm): 77% | Control (%) II (rice blast [2]; 600 ppm): 81% | Control (%) III (rice blast [2]; 600 ppm): 77% | Control (%) average (rice blast [2]; 600 ppm): 78% | Control (%) I (rice blast [2]; 800 ppm): 84% | Control (%) II (rice blast [2]; 800 ppm): 89% | Control (%) III (rice blast [2]; 800 ppm): 88% | Control (%) average (rice blast [2]; 800 ppm): 87% | Control (%) (cucumber downy mildew [3]; 25 ppm, inoculation 3 days after treatment): 52% | Control (%) (cucumber downy mildew [3]; 25 ppm, inoculation 7 days after treatment): 44% | Control (%) (cucumber downy mildew [3]; 50 ppm, inoculation 3 days after treatment): 74% | Control (%) (cucumber downy mildew [3]; 50 ppm, inoculation 7 days after treatment): 62% | Control (%) (cucumber downy mildew [3]; 100 ppm, inoculation 3 days after treatment): 96% | Control (%) (cucumber downy mildew [3]; 100 ppm, inoculation 7 days after treatment): 70% | Control (%) (cucumber downy mildew [3]; 200 ppm, inoculation 3 days after treatment): 100% | Control (%) (cucumber downy mildew [3]; 200 ppm, inoculation 7 days after treatment): 74% | Control (%) (cucumber downy mildew [3]; 400 ppm, inoculation 3 days after treatment): 100% | Control (%) (cucumber downy mildew [3]; 400 ppm, inoculation 7 days after treatment): 81% | EC50 against mango anthracnose (mango anthracnose): 1.518 ppm | EC50 against rice sheath blight (rice sheath blight): 0.799 ppm | EC50 against corn southern leaf blight [4]: 0.035 ppm | Control (%) (cucumber downy mildew [5]; 6.25 ppm): 44% | Control (%) (cucumber downy mildew [5]; 12.5 ppm): 66% | Control (%) (cucumber downy mildew [5]; 25 ppm): 88% | control of cucumber downy mildew (cucumber downy mildew [5]; 25 ppm): 100% | Control (%) (cucumber downy mildew [5]; 50 ppm): 96% | control of cucumber downy mildew (cucumber downy mildew [5]; 50 ppm): 100% | Control (%) (cucumber downy mildew [5]; 100 ppm): 100% | Biological activity in greenhouse, cucumber downy mildew (cucumber downy mildew [5]; 400 ppm, Table 21): 100 | control of cucumber downy mildew (cucumber downy mildew [5]; 400 ppm): 100% | inhibition ratio on spore germination of rice blast (rice blast [6]; 0.3 ppm): 100% | inhibition ratio on spore germination of rice blast (rice blast [6]; 25 ppm): 100% | Control (%) (corn rust; 3.13 ppm): 20% | Control (%) (corn rust; 6.25 ppm): 60% | Control (%) (corn rust; 12.5 ppm): 80% | Control (%) (corn rust; 25 ppm): 95% | control of corn rust (corn rust; 25 ppm): 100% | Control (%) (corn rust; 50 ppm): 100% | Control (%) (corn rust; 100 ppm): 100% | Biological activity in greenhouse, corn rust (corn rust; 400 ppm, Table 21): 100 | control of corn rust (corn rust; 400 ppm): 100% | EC50 against sigatoka (sigatoka): 2.389 ppm
